Measured values as given in the supplement of paper PMC10307832.

Columns and labels:
Experiment in all cases: relative viability (nuclei count vs DMSO), 5 days (fraction); higher = more cells survive
201T = system: 201T
How it was run: (§1)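 Relative viability was taken as the ratio of nuclei in treated wells to nuclei in vehicle wells. Lung cancer cell lines in 1536-well plates received compounds by pin tool one day after seeding, either one drug alone or a fixed anchor-drug dose plus five library-drug doses (not always all listed) in √10 steps. Nuclei were counted on 4× images after 5 days of treatment, and values are medians of duplicate plates.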

BEN = system: BEN
How it was run: as §1

COR-L 105 = system: COR-L 105
How it was run: as §1

EMC-BAC-2 = system: EMC-BAC-2
How it was run: as §1

H3255 = system: H3255
How it was run: as §1

HARA = system: HARA
How it was run: as §1

HCC-78 = system: HCC-78
How it was run: as §1

HOP-62 = system: HOP-62
How it was run: as §1

LC-2-ad = system: LC-2-ad
How it was run: as §1

LOU-NH91 = system: LOU-NH91
How it was run: as §1

LU99A = system: LU99A
How it was run: as §1

LXF-289 = system: LXF-289
How it was run: as §1

NCI-H1395 = system: NCI-H1395
How it was run: as §1

NCI-H1563 = system: NCI-H1563
How it was run: as §1

NCI-H1993 = system: NCI-H1993
How it was run: as §1

NCI-H2087 = system: NCI-H2087
How it was run: as §1

NCI-H2126 = system: NCI-H2126
How it was run: as §1

NCI-H2170 = system: NCI-H2170
How it was run: as §1

NCI-H650 = system: NCI-H650
How it was run: as §1

RERF-LC-KJ = system: RERF-LC-KJ
How it was run: as §1

SK-MES-1 = system: SK-MES-1
How it was run: as §1

SW 900 = system: SW 900
How it was run: as §1

UMC-11 = system: UMC-11
How it was run: as §1

Work on `CN1CCN(CCOc2cc(OC3CCOCC3)c3c(Nc4c(Cl)ccc5c4OCO5)ncnc3c2)CC1` [Saracatinib] + Cc1nc(Nc2ncc(C(=O)Nc3c(C)cccc3Cl)s2)cc(N2CCN(CCO)CC2)n1 [Dasatinib] (partner 0.075 µM) yielded a relative viability (201T; first compound 0.02 µM) of 0.602, a relative viability (201T; first compound 0.2 µM) of 0.567 and a relative viability (201T; first compound 0.6325 µM) of 0.57. The relative viability (201T; first compound 2 µM) was 0.489, the relative viability (BEN; first compound 0.02 µM) was 0.329 and the relative viability (BEN; first compound 0.6325 µM) was 0.373. It also gave a relative viability (BEN; first compound 2 µM) of 0.418, a relative viability (COR-L 105; first compound 0.02 µM) of 0.448 and a relative viability (COR-L 105; first compound 0.2 µM) of 0.457. The relative viability (COR-L 105; first compound 0.6325 µM) was 0.376, the relative viability (COR-L 105; first compound 2 µM) was 0.242 and the relative viability (EMC-BAC-2; first compound 0.02 µM) was 0.321. It also gave a relative viability (EMC-BAC-2; first compound 0.2 µM) of 0.286, a relative viability (EMC-BAC-2; first compound 0.6325 µM) of 0.324 and a relative viability (EMC-BAC-2; first compound 2 µM) of 0.294. The relative viability (H3255; first compound 0.02 µM) was 0.389, the relative viability (H3255; first compound 0.2 µM) was 0.303 and the relative viability (H3255; first compound 0.6325 µM) was 0.344. For the same compound, the relative viability (H3255; first compound 2 µM) was 0.267, the relative viability (HARA; first compound 0.02 µM) was 0.225 and the relative viability (HARA; first compound 0.2 µM) was 0.224. The relative viability (HARA; first compound 0.6325 µM) was 0.272, the relative viability (HARA; first compound 2 µM) was 0.23 and the relative viability (HCC-78; first compound 0.02 µM) was 0.477. It also gave a relative viability (HCC-78; first compound 0.6325 µM) of 0.421, a relative viability (HCC-78; first compound 2 µM) of 0.352 and a relative viability (HOP-62; first compound 0.02 µM) of 0.757. It also gave a relative viability (HOP-62; first compound 0.2 µM) of 0.663, a relative viability (HOP-62; first compound 0.6325 µM) of 0.766 and a relative viability (HOP-62; first compound 2 µM) of 0.636. The relative viability (LC-2-ad; first compound 0.02 µM) was 0.611, the relative viability (LC-2-ad; first compound 0.2 µM) was 0.571 and the relative viability (LC-2-ad; first compound 0.6325 µM) was 0.794. It also gave a relative viability (LC-2-ad; first compound 2 µM) of 0.596, a relative viability (LOU-NH91; first compound 0.02 µM) of 0.507 and a relative viability (LOU-NH91; first compound 0.2 µM) of 0.429. The relative viability (LOU-NH91; first compound 0.6325 µM) was 0.418, the relative viability (LOU-NH91; first compound 2 µM) was 0.419 and the relative viability (LU99A; first compound 0.02 µM) was 0.567. For the same compound, the relative viability (LU99A; first compound 0.2 µM) was 0.578, the relative viability (LU99A; first compound 0.6325 µM) was 0.652 and the relative viability (LU99A; first compound 2 µM) was 0.558. For the same compound, the relative viability (LXF-289; first compound 0.02 µM) was 0.224, the relative viability (LXF-289; first compound 0.2 µM) was 0.218 and the relative viability (LXF-289; first compound 0.6325 µM) was 0.185. The relative viability (LXF-289; first compound 2 µM) was 0.212, the relative viability (NCI-H1395; first compound 0.02 µM) was 0.394 and the relative viability (NCI-H1395; first compound 0.2 µM) was 0.418. For the same compound, the relative viability (NCI-H1395; first compound 0.6325 µM) was 0.411, the relative viability (NCI-H1395; first compound 2 µM) was 0.402 and the relative viability (NCI-H1563; first compound 0.02 µM) was 0.463. The relative viability (NCI-H1563; first compound 0.2 µM) was 0.39, the relative viability (NCI-H1563; first compound 0.6325 µM) was 0.437 and the relative viability (NCI-H1563; first compound 2 µM) was 0.397. The relative viability (NCI-H1993; first compound 0.02 µM) was 0.589, the relative viability (NCI-H1993; first compound 0.2 µM) was 0.528 and the relative viability (NCI-H1993; first compound 0.6325 µM) was 0.527. It also gave a relative viability (NCI-H1993; first compound 2 µM) of 0.501, a relative viability (NCI-H2087; first compound 0.02 µM) of 0.807 and a relative viability (NCI-H2087; first compound 0.2 µM) of 0.69. The relative viability (NCI-H2087; first compound 0.6325 µM) was 0.928, the relative viability (NCI-H2087; first compound 2 µM) was 0.656 and the relative viability (NCI-H2126; first compound 0.02 µM) was 0.569. The relative viability (NCI-H2126; first compound 0.2 µM) was 0.511, the relative viability (NCI-H2126; first compound 0.6325 µM) was 0.532 and the relative viability (NCI-H2126; first compound 2 µM) was 0.398. The relative viability (NCI-H2170; first compound 0.02 µM) was 0.766, the relative viability (NCI-H2170; first compound 0.2 µM) was 0.486 and the relative viability (NCI-H2170; first compound 0.6325 µM) was 0.548. It also gave a relative viability (NCI-H2170; first compound 2 µM) of 0.265, a relative viability (NCI-H650; first compound 0.02 µM) of 0.491 and a relative viability (NCI-H650; first compound 0.2 µM) of 0.416. It also gave a relative viability (NCI-H650; first compound 0.6325 µM) of 0.477, a relative viability (NCI-H650; first compound 2 µM) of 0.429 and a relative viability (RERF-LC-KJ; first compound 0.02 µM) of 0.883. It also gave a relative viability (RERF-LC-KJ; first compound 0.2 µM) of 0.797, a relative viability (RERF-LC-KJ; first compound 0.6325 µM) of 0.695 and a relative viability (RERF-LC-KJ; first compound 2 µM) of 0.676. It also gave a relative viability (SK-MES-1; first compound 0.02 µM) of 0.4, a relative viability (SK-MES-1; first compound 0.2 µM) of 0.289 and a relative viability (SK-MES-1; first compound 0.6325 µM) of 0.233. It also gave a relative viability (SK-MES-1; first compound 2 µM) of 0.186, a relative viability (SW 900; first compound 0.02 µM) of 0.559 and a relative viability (SW 900; first compound 0.2 µM) of 0.549. It also gave a relative viability (SW 900; first compound 0.6325 µM) of 0.548, a relative viability (SW 900; first compound 2 µM) of 0.549 and a relative viability (UMC-11; first compound 0.02 µM) of 0.471. The relative viability (UMC-11; first compound 0.6325 µM) was 0.543 and the relative viability (UMC-11; first compound 2 µM) was 0.473.
